# Patent publication US20230059136A1, “THE COMPOUNDS AND COMPOSITIONS FOR TREATING CONDITIONS ASSOCIATED WITH NLRP ACTIVITY” (Novartis AG, priority 2018, published 2023)
# Tested on: IL-1β production in PMA-differentiated THP-1 cells
# Experiment: IL-1β production in PMA-differentiated THP-1 cells stimulated with gramicidin (hTHP-1 assay containing 2% fetal bovine serum)
# Type: cell-based, human
# Conditions: Homo sapiens, THP-1, Table B1; 2% fetal bovine serum; cells printed as numeric bound; read-out: hTHP-1 IC50 (Average IC50 of compounds in hTHP-1 assay)
# In short: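 IL-1β release was read by HTRF on supernatants of 50,000 PMA-primed (20 ng/ml, 16-18 h) THP-1 cells/well in 2% FBS medium. Cells saw compound for 1 h (11-point titration from 100 μM, 0.37% DMSO) before a 2 h gramicidin (5 μM) challenge.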
row,IC50,SMILES
1,> 30 µM,"CC(C)c1cc(CCC2CCOCC2)cc(C(C)C)c1CC(=O)N=[S@](N)(=O)c1cc(C(C)(C)O)n(-c2ccccc2)n1 (single isomer, unassigned) [Example 235, (S) or (R)-N-(amino(5-(2-hydroxypropan-2-yl)-1-phenyl-1H-pyrazol-3-yl)(oxo)-λ^6-2-(2,6-diisopropyl-4-(2-(tetrahydro-2H-pyran-4-yl)ethyl)phenyl)acetamide]"
2,> 30 µM,"NS(=O)(=NC(=O)Cc1c2c(cc3c1CCC3)CCC2)c1cnn2c1OCCC2 (single isomer, unassigned) [Example 269, (R) or (S)-N-(amino(6,7-dihydro-5H-pyrazolo[5,1-b][1,3]oxazin-3-yl)(oxo)-λ^6-sulfaneylidene)-2-(1,2,3,5,6,7-hexahydro-s-indacen-4-yl)acetamide]"
3,> 30 µM,"COCc1cc(C(C)C)c(CC(=O)N=S(N)(=O)c2ncc(C(C)(C)O)s2)c(C(C)C)n1 (single isomer, unassigned) [Example 273, (S) or (R)-N-(amino (5-(2-hydroxypropan-2-yl)thiazol-2-yl)(oxo)-λ^6-sulfaneylidene)-2-(2,4-diisopropyl-6-(methoxymethyl)pyridin-3-yl)acetamide]"
4,> 30 µM,"CC(C)c1cc(C#CC2CCOCC2)cc(C(C)C)c1CC(=O)N=S(N)(=O)c1cc(C(C)(C)O)n(-c2ccccc2)n1 (single isomer, unassigned) [Example 278, (S) or (R)-N-(amino(5-(2-hydroxypropan-2-yl)-1-phenyl-1H-pyrazol-3-yl)(oxo)-λ^6-sulfaneylidene)-2-(2,6-diisopropyl-4-((tetrahydro-2H-pyran-4-yl)ethynyl)phenyl)acetamide]"

# Same assay, conditions: Homo sapiens, THP-1, Table B1; 2% fetal bovine serum; class symbols; read-out: hTHP-1 IC50 (Average IC50 of compounds in hTHP-1 assay)
row,IC50,SMILES
1,1 to 5 µM,"CC(C)c1cc2c(c(C(C)C)c1CC(=O)N=S(N)(=O)c1cnc(C(C)(C)O)s1)CCC2 (single isomer, unassigned) [Example 213, (S) or (R)-N-(amino(2-(2-hydroxypropan-2-yl)thiazol-5-yl)(oxo)-λ^6-sulfaneylidene)-2-(4,6-diisopropyl-2,3-dihydro-1H-inden-5-yl)acetamide]"
2,1 to 5 µM,"COCc1cc(C(C)C)c(CC(=O)N=S(N)(=O)c2ncc(C(C)(C)O)s2)c(C(C)C)n1 (single isomer, unassigned) [Example 274, (R) or (S)-N-(amino (5-(2-hydroxypropan-2-yl)thiazol-2-yl)(oxo)-λ^6-sulfaneylidene)-2-(2,4-diisopropyl-6-(methoxymethyl)pyridin-3-yl)acetamide]"

# Further lines, the compound ahead of its results:
row,SMILES,IC50
1,"CC(C)c1cc(CCC2CCOCC2)cc(C(C)C)c1CC(=O)N=S(N)(=O)c1cc(C(C)(C)O)n(-c2ccccc2)n1 (single isomer, unassigned) [Example 234, (R) or (S)—N-(amino(5-(2-hydroxypropan-2-yl)-1-phenyl-1H-pyrazol-3-yl)(oxo)-λ^6-sulfaneylidene)-2-(2,6-diisopropyl-4-(2-(tetrahydro-2H-pyran-4-yl)ethyl)phenyl)acetamide]",5 to 30 µM
2,"NS(=O)(=NC(=O)Cc1c2c(cc3c1CCC3)CCC2)c1cnn2c1OCCC2 (single isomer, unassigned) [Example 270, (S) or (R)-N-(amino(6,7-dihydro-5H-pyrazolo[5,1-b][1,3]oxazin-3-yl)(oxo)-λ^6-sulfaneylidene)-2-(1,2,3,5,6,7-hexahydro-s-indacen-4-yl)acetamide]",5 to 30 µM
3,"CC(C)c1cc(C#CC2CCOCC2)cc(C(C)C)c1CC(=O)N=S(N)(=O)c1cc(C(C)(C)O)n(-c2ccccc2)n1 (single isomer, unassigned) [Example 277, (R) or (S)-N-(amino (5-(2-hydroxypropan-2-yl)-1-phenyl-1H-pyrazol-3-yl)(oxo-λ^6-sulfaneylidene)-2-(2,6-diisopropyl-4-((tetrahydro-2H-pyran-4-yl)ethynyl)phenyl)acetamide]",0.2 to 1 µM

# Same assay, conditions: Table B1; 2% fetal bovine serum; class symbols; read-out: hTHP-1 IC50 (Average IC50 of compounds in hTHP-1 assay)
row,IC50,SMILES
1,0.2 to 1 µM,"CC(C)c1nc(-c2cccc(C(F)(F)F)c2)c(F)c(C(C)C)c1CC(=O)N=S(N)(=O)c1cnc(C(C)(C)O)s1 (single isomer, unassigned) [Example 202, N-(amino(2-(2-hydroxypropan-2-yl)thiazol-5-yl)(oxo)-λ^6-sulfaneylidene)-2-(5-fluoro-2,4-diisopropyl-6-(3-(trifluoromethyl)phenyl)pyridin-3-yl) acetamide]"
2,5 to 30 µM,"CC(C)c1nc(-c2cccc(C(F)(F)F)c2)c(F)c(C(C)C)c1CC(=O)N=S(N)(=O)c1cnc(C(C)(C)O)s1 (single isomer, unassigned) [Example 203, (S) or (R)-N-(amino (2-(2-hydroxypropan-2-yl)thiazol-5-yl)(oxo)-λ^6-sulfaneylidene)-2-(5-fluoro-2,4-diisopropyl-6-(3-(trifluoromethyl)phenyl)pyridin-3-yl) acetamide]"
3,0.04 to 0.2 µM,"CC(C)c1ncc(F)c(C(C)C)c1CC(=O)N=S(N)(=O)c1cc(C(C)(C)O)cs1 (single isomer, unassigned) [Example 208, N-(amino(4-(2-hydroxypropan-2-yl)thiophen-2-yl)(oxo)-λ^6-sulfaneylidene)-2-(5-fluoro-2,4-diisopropylpyridin-3-yl)acetamide]"
4,1 to 5 µM,"CC(C)c1ncc(F)c(C(C)C)c1CC(=O)N=S(N)(=O)c1cc(C(C)(C)O)cs1 (single isomer, unassigned) [Example 209, (S) or (R)-N-(amino(4-(2-hydroxypropan-2-yl)thiophen-2-yl)(oxo)-λ^6-sulfaneylidene)-2-(5-fluoro-2,4-diisopropylpyridin-3-yl)acetamide]"
5,5 to 30 µM,"CC(C)c1ncc(F)c(C(C)C)c1CC(=O)N=S(N)(=O)c1sc(C(C)(C)O)cc1F (single isomer, unassigned) [Example 210, (S) or (R)-N-(amino (3-fluoro-5-(2-hydroxypropan-2-yl)thiophen-2-yl)(oxo)-λ^6-sulfaneylidene)-2-(5-fluoro-2,4-diisopropylpyridin-3-yl)acetamide]"
6,0.2 to 1 µM,"CC(C)c1ncc(F)c(C(C)C)c1CC(=O)N=S(N)(=O)c1sc(C(C)(C)O)cc1F (single isomer, unassigned) [Example 211, N-(amino(3-fluoro-5-(2-hydroxypropan-2-yl)thiophen-2-yl)(oxo)-λ^6-sulfaneylidene)-2-(5-fluoro-2,4-diisopropylpyridin-3-yl)acetamide]"
7,5 to 30 µM,"CC(C)c1cc(C#N)c(F)c(C(C)C)c1CC(=O)N=S(N)(=O)c1cc(C(C)(C)O)n(-c2ccccc2)n1 (single isomer, unassigned) [Example 276, (S) or (R)-N-(amino (5-(2-hydroxypropan-2-yl)-1-phenyl-1H-pyrazol-3-yl)(oxo)-λ^6-sulfaneylidene)-2-(4-cyano-3-fluoro-2,6-diisopropylphenyl) acetamide]"

# The remaining lines, values behind:
row,SMILES,IC50
1,"CC(C)c1cc(C(F)F)cc(C(C)C)c1CC(=O)N=S(N)(=O)c1ccc(CN(C)C)cc1F (single isomer, unassigned) [Example 214, (R) or (S)-N-(amino(4-((dimethylamino)methyl)-2-fluorophenyl) (oxo)-λ^6-sulfaneylidene)-2-(4-(difluoromethyl)-2,6-diisopropylphenyl) acetamide]",0.04 to 0.2 µM
2,"CC(C)c1cc(C(F)F)cc(C(C)C)c1CC(=O)N=S(N)(=O)c1ccc(CN(C)C)cc1F (single isomer, unassigned) [Example 215, (S) or (R)-N-(amino(4-((dimethylamino)methyl)-2-fluorophenyl) (oxo)-λ^6-sulfaneylidene)-2-(4-(difluoromethyl)-2,6-diisopropylphenyl) acetamide]",1 to 5 µM
3,"CC(C)c1cc2c(c(C(C)C)c1CC(=O)N=S(N)(=O)c1cc(C(C)(C)O)cs1)COC2 (single isomer, unassigned) [Example 216, (R) or (S)-N-(amino (4-(2-hydroxypropan-2-yl)thiophen-2-yl)(oxo)-λ^6-sulfaneylidene)-2-(4,6-diisopropyl-1,3-dihydroiso-benzofuran-5-yl)acetamide]",0.2 to 1 µM
4,"CC(C)c1cc2c(c(C(C)C)c1CC(=O)N=S(N)(=O)c1cc(C(C)(C)O)cs1)COC2 (single isomer, unassigned) [Example 217, (S) or (R)-N-(amino (4-(2-hydroxypropan-2-yl)thiophen-2-yl)(oxo)-λ^6-sulfaneylidene)-2-(4,6-diisopropyl-1,3-dihydro-isobenzofuran-5-yl)acetamide]",5 to 30 µM
5,"CC(C)c1cc(-c2ccc3c(c2)CCOC3)cc(C(C)C)c1CC(=O)N=S(N)(=O)c1sc(C(C)(C)O)nc1CO (single isomer, unassigned) [Example 271, (R) or (S)-N-(amino(4-(hydroxymethyl)-2-(2-hydroxypropan-2-yl)thiazol-5-yl)(oxo)-λ^6-sulfaneylidene)-2-(4-(isochroman-6-yl)-2,6-diisopropylphenyl) acetamide]",0.2 to 1 µM
6,"CC(C)c1cc(-c2ccc3c(c2)CCOC3)cc(C(C)C)c1CC(=O)N=S(N)(=O)c1sc(C(C)(C)O)nc1CO (single isomer, unassigned) [Example 272, (S) or (R)-N-(amino(4-(hydroxymethyl)-2-(2-hydroxypropan-2-yl)thiazol-5-yl)(oxo)-λ^6-sulfaneylidene)-2-(4-(isochroman-6-yl)-2,6-diisopropylphenyl) acetamide]",5 to 30 µM
7,"CC(C)c1cc(C#N)c(F)c(C(C)C)c1CC(=O)N=S(N)(=O)c1cc(C(C)(C)O)n(-c2ccccc2)n1 (single isomer, unassigned) [Example 275, (R) or (S)-N-(amino (5-(2-hydroxypropan-2-yl)-1-phenyl-1H-pyrazol-3-yl)(oxo)-λ^6-sulfaneylidene)-2-(4-cyano-3-fluoro-2,6-diisopropylphenyl) acetamide]",0.2 to 1 µM
